ChEMBL document CHEMBL3259525, “Plasmepsin inhibitory activity and structure-guided optimization of a potent hydroxyethylamine-based antimalarial hit” (ACS Med Chem Lett, 2014)

Columns and labels:
Plasmepsin II = Plasmepsin II (Plasmodium falciparum, UniProt P46925); test: Inhibition of Plasmodium falciparum plasmepsin-2 using DABCYL-Glu-Arg-Nle-Phe-Leu-Ser-Phe-Pro-EDANS as substrate preincubated for 30 mins by FRET assay
Cathepsin D = Cathepsin D (Homo sapiens, UniProt P07339); test: Inhibition of human cathepsin-D using DABCYL-Glu-Arg-Nle-Phe-Leu-Ser-Phe-Pro-EDANS as substrate preincubated for 30 mins by FRET assay
Sequence of Cathepsin D (P07339 65-162 limits assumed): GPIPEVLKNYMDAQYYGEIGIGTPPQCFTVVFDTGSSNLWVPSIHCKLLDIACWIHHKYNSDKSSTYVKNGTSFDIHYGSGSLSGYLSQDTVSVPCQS
Sequence of Cathepsin D (P07339 169-412 limits assumed): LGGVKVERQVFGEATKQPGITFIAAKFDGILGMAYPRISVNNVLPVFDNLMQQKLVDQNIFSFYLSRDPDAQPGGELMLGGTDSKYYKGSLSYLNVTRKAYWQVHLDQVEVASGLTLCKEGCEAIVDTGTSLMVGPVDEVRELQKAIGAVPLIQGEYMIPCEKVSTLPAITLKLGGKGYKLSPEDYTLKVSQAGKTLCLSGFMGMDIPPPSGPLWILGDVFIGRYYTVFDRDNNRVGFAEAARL

[1] = Inhibition of Plasmodium falciparum plasmepsin-4 using DABCYL-Glu-Arg-Nle-Phe-Leu-Ser-Phe-Pro-EDANS as substrate preincubated for 30 mins by FRET assay
Plasmepsin I = Plasmepsin I (Plasmodium falciparum, UniProt P39898); test: Inhibition of Plasmodium falciparum plasmepsin-1 using DABCYL-Glu-Arg-Nle-Phe-Leu-Ser-Phe-Pro-EDANS as substrate preincubated for 30 mins by FRET assay
Sequence of Plasmepsin I (P39898 whole entry): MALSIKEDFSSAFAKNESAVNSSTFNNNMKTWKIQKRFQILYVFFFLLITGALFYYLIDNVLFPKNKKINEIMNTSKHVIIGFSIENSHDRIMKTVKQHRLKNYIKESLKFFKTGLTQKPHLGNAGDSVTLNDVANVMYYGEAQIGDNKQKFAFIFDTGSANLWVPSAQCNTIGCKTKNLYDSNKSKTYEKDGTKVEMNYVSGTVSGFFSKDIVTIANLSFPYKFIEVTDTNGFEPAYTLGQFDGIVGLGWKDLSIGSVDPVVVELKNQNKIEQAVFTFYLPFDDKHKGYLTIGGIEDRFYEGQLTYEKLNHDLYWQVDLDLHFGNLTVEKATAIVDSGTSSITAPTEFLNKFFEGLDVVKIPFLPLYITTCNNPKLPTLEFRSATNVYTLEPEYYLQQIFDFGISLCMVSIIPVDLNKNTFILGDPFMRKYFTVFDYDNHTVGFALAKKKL

Plasmodium falciparum [2] = test: Antimalarial activity against blood-stage Plasmodium falciparum 3D7 assessed as inhibition of parasite growth after 96 hrs by SYBR Green I assay; format: functional, organism-based; conditions: 3D7, 96 h
Plasmodium falciparum [3] = test: Antimalarial activity against intra erythrocytic Plasmodium falciparum assessed as inhibition of parasite growth; format: functional, organism-based

Sequence of Plasmepsin II (P46925 whole entry): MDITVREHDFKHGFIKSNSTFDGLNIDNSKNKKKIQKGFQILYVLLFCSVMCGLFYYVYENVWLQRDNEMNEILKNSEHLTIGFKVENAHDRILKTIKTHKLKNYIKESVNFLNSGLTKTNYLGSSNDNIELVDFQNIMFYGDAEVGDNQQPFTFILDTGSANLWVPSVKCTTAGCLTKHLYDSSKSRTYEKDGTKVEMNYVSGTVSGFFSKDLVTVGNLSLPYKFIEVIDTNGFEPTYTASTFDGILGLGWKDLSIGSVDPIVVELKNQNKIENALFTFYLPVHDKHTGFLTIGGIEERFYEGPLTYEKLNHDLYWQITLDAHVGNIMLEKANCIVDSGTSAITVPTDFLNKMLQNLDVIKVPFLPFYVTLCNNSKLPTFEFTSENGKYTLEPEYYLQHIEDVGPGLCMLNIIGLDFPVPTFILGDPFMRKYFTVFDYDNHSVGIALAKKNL

| Structure (SMILES) | IC50 (Plasmepsin II) | IC50 (Cathepsin D) | IC50 [1] | IC50 (Plasmepsin I) | IC50 (Plasmodium falciparum [2]) | IC50 (Plasmodium falciparum [3]) |
| --- | --- | --- | --- | --- | --- | --- |
| CCCNC(=O)c1cc(C(=O)N[C@@H](Cc2ccccc2)[C@H](O)CNC(C)(C)c2cccc(OC)c2)cc(N2CCCCC2)c1 | 500 nM | 110 nM | 38 nM | 750 nM |  |  |
| CCCN(CCC)C(=O)c1cc(C(=O)N[C@@H](Cc2ccccc2)[C@H](O)CNC(C)(C)c2ccccc2)cc(N2CCCCS2(=O)=O)c1 | 320 nM | 120 nM | 48 nM | 2300 nM |  |  |
| CCCN(CCC)C(=O)c1cc(C(=O)N[C@@H](Cc2ccccc2)[C@@H](O)CNC(C)(C)c2ccccc2)cc(N2CCCCS2(=O)=O)c1 | 24000 nM | 5800 nM | 720 nM | 45000 nM |  |  |
| CCCN(CCC)C(=O)c1cc(C(=O)N[C@@H](Cc2ccccc2)[C@H](O)CNC(C)(C)c2cccc(OC)c2)cc(N2CCCCC2)c1 | 70 nM | 42 nM | 24 nM | 300 nM | 6 nM |  |
| CCCN(CCC)C(=O)c1cc(C(=O)N[C@@H](Cc2ccccc2)[C@H](O)CNC(C)(C)c2ccccc2)cc(N2CCCCC2)c1 | 110 nM | 51 nM | 23 nM | 380 nM |  |  |
| CCCN(CCC)C(=O)c1cc(C(=O)N[C@@H](Cc2ccccc2)[C@H](O)CNC(C)(C)c2ccccn2)cc(N2CCCCC2)c1 | 800 nM | 350 nM | 250 nM | 4100 nM |  |  |
| CCCN(CCC)C(=O)c1cc(C(=O)N[C@@H](Cc2ccccc2)[C@H](O)CNC(C)(C)c2cncc(OC)c2)cc(N2CCCCC2)c1 | 190 nM | 68 nM | 23 nM | 600 nM |  |  |
| CCCN(CCC)C(=O)c1cc(C(=O)N[C@@H](Cc2ccccc2)[C@H](O)CNC2(c3cccc(OC)c3)CC2)cc(N2CCCCC2)c1 | 150 nM | 100 nM | 25 nM | 330 nM |  |  |
| COc1cccc(C(C)(C)NC[C@@H](O)[C@H](Cc2ccccc2)NC(=O)c2cc(C(=O)N3CCCC3)cc(N3CCCCC3)c2)c1 | 500 nM | 38 nM | 110 nM | 1600 nM |  |  |
| COc1cccc(C(C)(C)NC[C@@H](O)[C@H](Cc2ccccc2)NC(=O)c2cc(C(N)=O)cc(N3CCCCC3)c2)c1 | 4400 nM | 500 nM | 170 nM | 7600 nM |  |  |
| CCCN(CCC)C(=O)c1cc(C(=O)N[C@@H](Cc2ccccc2)[C@H](O)CNC(C)(C)c2cccc(OC)c2)cc(C2CCCCC2)c1 | 36 nM | 19 nM | 25 nM | 200 nM |  |  |
| CCCN(CCC)C(=O)c1cc(C(=O)N[C@@H](Cc2ccccc2)[C@H](O)CNC(C)(C)c2cccc(OC)c2)cc(N2CCCC2)c1 | 120 nM | 32 nM | 7 nM | 430 nM | 4 nM |  |
| CCCN(CCC)C(=O)c1cc(C(=O)N[C@@H](Cc2ccccc2)[C@H](O)CNC(C)(C)c2cccc(OC)c2)cc(-c2ccccc2)c1 | 72 nM | 54 nM | 6 nM | 250 nM | 2 nM |  |

Further lines, with some results ahead:

| IC50 (Plasmepsin II) | IC50 (Cathepsin D) | IC50 [1] | IC50 (Plasmepsin I) | Structure (SMILES) | IC50 (Plasmodium falciparum [2]) | IC50 (Plasmodium falciparum [3]) |
| --- | --- | --- | --- | --- | --- | --- |
| 14000 nM | 4400 nM | 470 nM | 18000 nM | CCCN(CCC)C(=O)c1cc(C(=O)N[C@@H](Cc2ccccc2)[C@@H](O)CNC(C)(C)c2cccc(OC)c2)cc(N2CCCCS2(=O)=O)c1 | 200 nM |  |
| 100 nM | 40 nM | 19 nM | 360 nM | CCCN(CCC)C(=O)c1cc(C(=O)N[C@@H](Cc2ccccc2)[C@H](O)CNC(C)(C)c2cccc(O)c2)cc(N2CCCCC2)c1 |  |  |
| 190 nM | 140 nM | 64 nM | 350 nM | CCCN(CCC)C(=O)c1cc(C(=O)N[C@@H](Cc2ccccc2)[C@H](O)CNC(C)(C)c2cccnc2)cc(N2CCCCC2)c1 |  |  |
| 270 nM | 170 nM | 90 nM | 470 nM | CCCN(CCC)C(=O)c1cc(C(=O)N[C@@H](Cc2ccccc2)[C@H](O)CNC(C)(C)c2ccncc2)cc(N2CCCCC2)c1 |  |  |
| 600 nM | 200 nM | 180 nM | 6100 nM | CCCN(CCC)C(=O)c1cc(C(=O)N[C@@H](Cc2ccccc2)[C@H](O)CNCc2cccc(OC)c2)cc(N2CCCCC2)c1 |  |  |
| 2700 nM | 360 nM | 200 nM | 18000 nM | CCCN(CCC)C(=O)c1cc(C(=O)N[C@@H](Cc2ccccc2)[C@H](O)CNCc2cccc(OC)c2)cc(N2CCCCS2(=O)=O)c1 |  |  |
| 150 nM | 43 nM | 29 nM | 700 nM | CCCN(CCC)C(=O)c1cc(C(=O)N[C@@H](Cc2ccccc2)[C@H](O)CNC(C)(C)c2cccc(OC)c2)cc(N2CCCCS2(=O)=O)c1 | 2 nM | 30 nM |
